Laboratory results reported in patent US20210171948A1, “COMPOSITIONS AND METHODS FOR TARGETING GLYPICAN-2 IN THE TREATMENT OF CANCER” (Shepherd Therapeutics, Inc., priority 2019, published 2021).
Strand notation (5' to 3'): a small letter for the sugar, then the base; units joined by * are phosphorothioate-linked, units joined directly phosphodiester-linked; [ ] holds rarer units or linkages, { } end groups; capitals alone tell only the bases. d = 2'-deoxy (DNA); r = 2'-OH (RNA)

Tests used:
GPC2 mRNA [1] = assay: GPC2 mRNA knockdown in neuroblastoma cell lines (Example 4); type: cell-based, human
Experimental: GPC2 mRNA knockdown was assessed in multiple neuroblastoma cell lines. Cells were transfected with either a scrambled control siRNA, with GPC2 siRNA sequences 3 or 5 from Table 7, or with siRNA sequences generated by Dharmacon (sequences 12-15 from Table 7) using the RNAiMAX Lipofectamine kit (Invitrogen, Carlsbad, Calif.) as previously described. Following a 96 hour incubation period, total RNA samples were collected to compare knockdown efficiency and viability was measured in parallel plated cells.
The extent of GPC2 mRNA reduction was assessed with additional GPC2 siRNA sequences in the CHP212 neuroblastoma cell line. Cells were transfected with either a scrambled control siRNA or with GPC2 siRNA sequences 3 or 5, or with siRNA sequences 6-11 (Sigma) using the RNAiMAX Lipofectamine kit (Invitrogen, Carlsbad, Calif.) as previously described. Following a 96 hour incubation period, total RNA samples were collected and viability was measured in parallel plated cells.
The extent of GPC2 mRNA reduction (knockdown) and corresponding protein level expression changes were assessed in three neuroblastoma cell lines following siRNA knockdown of GPC2. The CHP212 neuroblastoma cell line (FIG. 5A and FIG. 5D), the SH-SY5Y neuroblastoma cell line (FIG. 5B and FIG. 5E) and the CHLA90 neuroblastoma cell line (FIG. 5C and FIG. 5F) were transfected with GPC2 siRNA sequences 5 and 7 from Table 7 and a scrambled control siRNA using the RNAiMAX Lipofectamine kit (Invitrogen, Carlsbad, Calif.) as previously described. Following a 24, 48, or 72 hour incubation period, cells were washed and total RNA was isolated for measuring GPC2 mRNA expression. For protein analysis, cells were fixed, immunostained using an antibody against GPC2 protein, protein expression was measured via flow cytometry. As shown, GPC2 mRNA knockdown was observed beginning at the 24 hr time point and lasted for at least 72 hours. GPC2 protein expression started to decrease at the 48 hr time point.

GPC2 mRNA [2] = assay: GPC2 mRNA knockdown in neuroblastoma cell lines, representative data from a separate experiment (Tables 10-14); type: cell-based, human; design: concentration or dose not given beside the values
CHLA-90 cells [3] = assay: Carboplatin IC50 in siRNA-transfected cells, Cell Titer Glo 2.0 viability (Example 6); type: cell-based
Experimental: (§1) GPC2 mRNA expression was reduced using the indicated siRNAs and changes in cell viability were assessed in multiple neuroblastoma cell lines. Cells were transfected with either a control siRNA or with GPC2 siRNA sequences 3, 5 or 7 from Table 7 using the RNAiMAX Lipofectamine kit (Invitrogen, Carlsbad, Calif.) as previously described in 96 wells for viability assays. Carboplatin was added at increasing concentrations (0 to 150 uM) to transfected cells at 24 hours post transfection. Following a 72 hour incubation period, viability measurements were made using Cell Titer Glo 2.0.

CHP212 cells [4] = assay: as above; type: cell-based
Experimental: as §1

SH-SY5Y cells [5] = assay: as above; type: cell-based
Experimental: as §1

SK-N-BE2 cells [6] = assay: as above; type: cell-based
Experimental: as §1

CHLA-90 cells [7] = assay: Doxorubicin IC50 in siRNA-transfected cells, Cell Titer Glo viability (Example 8); type: cell-based
Experimental: as §1, with “reduced” for “reduced using the indicated siRNAs”, “with GPC-2” for “with GPC2”, “assays. Doxorubicin” for “assays. Carboplatin”, “concentrations (0-5” for “concentrations (0 to 150”, “Titer Glo.” for “Titer Glo 2.0.”

CHP212 cells [8] = assay: as above; type: cell-based
Experimental: as §1, with “reduced” for “reduced using the indicated siRNAs”, “with GPC-2” for “with GPC2”, “assays. Doxorubicin” for “assays. Carboplatin”, “concentrations (0-5” for “concentrations (0 to 150”, “Titer Glo.” for “Titer Glo 2.0.”

SH-SY5Y cells [9] = assay: as above; type: cell-based
Experimental: as §1, with “reduced” for “reduced using the indicated siRNAs”, “with GPC-2” for “with GPC2”, “assays. Doxorubicin” for “assays. Carboplatin”, “concentrations (0-5” for “concentrations (0 to 150”, “Titer Glo.” for “Titer Glo 2.0.”

SK-N-BE2 cells [10] = assay: as above; type: cell-based
Experimental: as §1, with “reduced” for “reduced using the indicated siRNAs”, “with GPC-2” for “with GPC2”, “assays. Doxorubicin” for “assays. Carboplatin”, “concentrations (0-5” for “concentrations (0 to 150”, “Titer Glo.” for “Titer Glo 2.0.”

CHLA-90 cells [11] = assay: Etoposide IC50 in siRNA-transfected cells, Cell Titer Glo 2.0 viability (Example 9); type: cell-based
Experimental: as §1, with “reduced” for “reduced using the indicated siRNAs”, “Etoposide” for “Carboplatin”, “(0-15” for “(0 to 150”, “measurement” for “measurements”

CHP212 cells [12] = assay: as above; type: cell-based; settings: CHP212 cells transfected with the labelled siRNA; etoposide added 24 hours post transfection, 72 hour incubation
Experimental: as §1, with “reduced” for “reduced using the indicated siRNAs”, “Etoposide” for “Carboplatin”, “(0-15” for “(0 to 150”, “measurement” for “measurements”

SH-SY5Y cells [13] = assay: as above; type: cell-based
Experimental: as §1, with “reduced” for “reduced using the indicated siRNAs”, “Etoposide” for “Carboplatin”, “(0-15” for “(0 to 150”, “measurement” for “measurements”

SK-N-BE2 cells [14] = assay: as above; type: cell-based
Experimental: as §1, with “reduced” for “reduced using the indicated siRNAs”, “Etoposide” for “Carboplatin”, “(0-15” for “(0 to 150”, “measurement” for “measurements”

In the case of “GPC2 siRNA 7: siRNA duplex: sense CUCCUUUCUGGUUCACACA[dT][dT] (SEQ ID NO: 215), anti-sense UGUGUGAACCAGAAAGGAG[dT][dT] (SEQ ID NO: 216) (sense rCrUrCrCrUrUrUrCrUrGrGrUrUrCrArCrArCrAdTdT; antisense rUrGrUrGrUrGrArArCrCrArGrArArArGrGrArGdTdT; listed as Homo sapiens)”, the “Time for which reduced GPC2 mRNA expression was sustained” value (GPC2 mRNA [1]; CHLA90 neuroblastoma cells (FIG. 5C)) is reported as 72 h, the “Time point at which GPC2 mRNA knockdown was first observed” value (GPC2 mRNA [1]; CHP212, SH-SY5Y and CHLA90 neuroblastoma cell lines) is reported as 24 h and the “Degree of GPC2 knockdown among sequences 3, 5, 6-11” value (GPC2 mRNA [1]; CHP212 neuroblastoma cell line, 96 hour incubation (FIG. 4A)) is reported as “greater”. For the same substance, the “Time for which reduced GPC2 mRNA expression was sustained” value (GPC2 mRNA [1]; CHP212 neuroblastoma cells (FIG. 5A)) was 72 h, the “Time for which reduced GPC2 mRNA expression was sustained” value (GPC2 mRNA [1]; SH-SY5Y neuroblastoma cells (FIG. 5B)) was 72 h and the “% KD; percent GPC2 mRNA reduction (knockdown)” value (GPC2 mRNA [2]; CHLA-90, compared to scrambled siRNA control) was 65%. The “% KD; percent GPC2 mRNA reduction (knockdown)” value (GPC2 mRNA [2]; CHLA-136, compared to scrambled siRNA control) was 30%, the “% KD; percent GPC2 mRNA reduction (knockdown)” value (GPC2 mRNA [2]; CHLA-172, compared to scrambled siRNA control) was 20% and the “% KD; percent GPC2 mRNA reduction (knockdown)” value (GPC2 mRNA [2]; CHP212, compared to scrambled siRNA control) was 70%. For the same substance, the “% KD; percent GPC2 mRNA reduction (knockdown)” value (GPC2 mRNA [2]; KELLY, compared to scrambled siRNA control) was 73%, the “% KD; percent GPC2 mRNA reduction (knockdown)” value (GPC2 mRNA [2]; SH-SY5Y, compared to scrambled siRNA control) was 70% and the “% KD; percent GPC2 mRNA reduction (knockdown)” value (GPC2 mRNA [2]; SK-N-BE2, compared to scrambled siRNA control) was 69%. For the same substance, the “% KD; percent GPC2 mRNA reduction (knockdown)” value (GPC2 mRNA [2]; SKNAS, compared to scrambled siRNA control) was 64%, the “Data Summary: effect of knockdown on sensitivity to carboplatin” value (from here on “Data Summary: effect … to carboplatin”) (CHLA-90 cells [3]; CHLA-90) was “increases sensitivity to” and the IC50 (CHLA-90 cells [3]; CHLA-90 cells transfected with the labelled siRNA, carboplatin added 24 hours post transfection, 72 hour incubation) was 15 µM. The “Data Summary: effect … to carboplatin” value (CHP212 cells [4]; CHP212) was “increases sensitivity to”, the IC50 (CHP212 cells [4]; CHP212 cells transfected with the labelled siRNA, carboplatin added 24 hours post transfection, 72 hour incubation) was 8.14 µM and the “Data Summary: effect … to carboplatin” value (SH-SY5Y cells [5]; SH-SY5Y) was “increases sensitivity to”. For the same substance, the IC50 (SH-SY5Y cells [5]; SH-SY5Y cells transfected with the labelled siRNA, carboplatin added 24 hours post transfection, 72 hour incubation) was 470 nM, the “Data Summary: effect … to carboplatin” value (SK-N-BE2 cells [6]; SK-N-BE2) was “increases sensitivity to” and the IC50 (SK-N-BE2 cells [6]; SK-N-BE2 cells transfected with the labelled siRNA, carboplatin added 24 hours post transfection, 72 hour incubation) was 2500 nM. The “Data Summary: effect of knockdown on sensitivity to doxorubicin” value (shortened to “Data Summary: effect … to doxorubicin”) (CHLA-90 cells [7]; CHLA-90) was “increases sensitivity to”, the IC50 (CHLA-90 cells [7]; CHLA-90 cells transfected with the labelled siRNA, doxorubicin added 24 hours post transfection, 72 hour incubation) was 130 nM and the “Data Summary: effect … to doxorubicin” value (CHP212 cells [8]; CHP212) was “does not increase sensitivity”. The IC50 (CHP212 cells [8]; CHP212 cells transfected with the labelled siRNA, doxorubicin added 24 hours post transfection, 72 hour incubation) was 20 nM, the “Data Summary: effect … to doxorubicin” value (SH-SY5Y cells [9]; SH-SY5Y) was “KD with sequence 7 increases” and the IC50 (SH-SY5Y cells [9]; SH-SY5Y cells transfected with the labelled siRNA, doxorubicin added 24 hours post transfection, 72 hour incubation) was 30 nM. For the same substance, the “Data Summary: effect … to doxorubicin” value (SK-N-BE2 cells [10]; SK-N-BE2) was “increases sensitivity to”, the IC50 (SK-N-BE2 cells [10]; SK-N-BE2 cells transfected with the labelled siRNA, doxorubicin added 24 hours post transfection, 72 hour incubation) was 200 nM and the “Data Summary: effect of knockdown on sensitivity to etoposide” value (“Data Summary: effect … to etoposide” below) (CHLA-90 cells [11]; CHLA-90) was “increases sensitivity to etoposide”. The IC50 (CHLA-90 cells [11]; CHLA-90 cells transfected with the labelled siRNA, etoposide added 24 hours post transfection, 72 hour incubation) was 130 nM, the IC50 (CHP212 cells [12]) was 20 nM and the “Data Summary: effect … to etoposide” value (SH-SY5Y cells [13]; SH-SY5Y) was 7 increases sensitivity to etoposide. For the same substance, the IC50 (SH-SY5Y cells [13]; SH-SY5Y cells transfected with the labelled siRNA, etoposide added 24 hours post transfection, 72 hour incubation) was 30 nM, the “Data Summary: effect … to etoposide” value (SK-N-BE2 cells [14]; SK-N-BE2) was 7 increases sensitivity to etoposide and the IC50 (SK-N-BE2 cells [14]; SK-N-BE2 cells transfected with the labelled siRNA, etoposide added 24 hours post transfection, 72 hour incubation) was 200 nM.
